# Values joined by “and” are separate entries in the source; they are usually repeats but may differ in a detail not shown here. Equal entries are not always repeated. “Also recorded” adds a separate entry of the source. Where two headings read alike, the source gives them in different places.
# Legend:
# [1] = molecular target: T1, human recombinant BACE1 (Homo sapiens, UniProt P56817); settings: cited from earlier work; for BACE1 inhibitory activity (in words): compounds isolated from n-BuOH fraction in earlier study
# T1 construct: purchased Pan Vera Co. (Madison, WI, USA)
# T1 sequence (P56817 46-501): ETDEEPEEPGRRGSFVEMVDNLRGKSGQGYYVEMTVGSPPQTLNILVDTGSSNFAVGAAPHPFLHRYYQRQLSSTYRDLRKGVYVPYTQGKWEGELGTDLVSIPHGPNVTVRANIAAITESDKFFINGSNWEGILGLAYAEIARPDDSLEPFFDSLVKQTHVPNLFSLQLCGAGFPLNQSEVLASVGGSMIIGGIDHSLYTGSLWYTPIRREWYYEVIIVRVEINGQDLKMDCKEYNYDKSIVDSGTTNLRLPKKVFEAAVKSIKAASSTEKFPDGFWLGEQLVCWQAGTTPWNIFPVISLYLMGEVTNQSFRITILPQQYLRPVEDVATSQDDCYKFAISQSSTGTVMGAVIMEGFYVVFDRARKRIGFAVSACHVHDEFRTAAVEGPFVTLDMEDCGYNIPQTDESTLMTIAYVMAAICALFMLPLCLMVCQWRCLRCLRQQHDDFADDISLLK
# [2] = molecular target: T2, Electric eel acetylcholinesterase (Electrophorus electricus, UniProt O42275); experiment: In vitro AChE inhibition assay (Ellman spectrophotometric method); format: biochemical
# T2 construct: purchased Sigma Co. (St. Louis, MO, USA)
# T2 sequence (O42275 24-633): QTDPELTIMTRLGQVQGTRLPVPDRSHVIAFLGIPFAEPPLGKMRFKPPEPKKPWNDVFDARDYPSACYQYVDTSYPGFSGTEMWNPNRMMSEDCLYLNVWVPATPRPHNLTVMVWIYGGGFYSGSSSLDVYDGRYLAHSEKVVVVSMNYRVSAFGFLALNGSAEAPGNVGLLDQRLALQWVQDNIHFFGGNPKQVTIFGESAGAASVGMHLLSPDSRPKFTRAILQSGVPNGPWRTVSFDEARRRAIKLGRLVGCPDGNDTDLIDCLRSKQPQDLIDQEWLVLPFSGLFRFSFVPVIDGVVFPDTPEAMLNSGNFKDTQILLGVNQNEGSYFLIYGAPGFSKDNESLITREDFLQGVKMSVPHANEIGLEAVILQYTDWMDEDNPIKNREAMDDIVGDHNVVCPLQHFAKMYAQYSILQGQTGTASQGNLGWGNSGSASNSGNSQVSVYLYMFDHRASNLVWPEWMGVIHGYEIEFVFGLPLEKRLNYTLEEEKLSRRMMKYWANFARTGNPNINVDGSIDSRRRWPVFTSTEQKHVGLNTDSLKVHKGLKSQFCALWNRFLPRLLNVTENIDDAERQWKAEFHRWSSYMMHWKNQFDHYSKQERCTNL
# Procedure: (§1) The inhibitory activities of isolated compounds against ChEs were measured using the spectrophotometric method, as described previously. Briefly, AChI and BCh were used as the substrates to assay the inhibition of AChE and BChE, respectively. Each reaction mixture contained 140 µL of sodium phosphate buffer (pH 8.0); 20 µL of compounds (final conc., 100 µM); and, 20 µL of either AChE or BChE solution, which was mixed and incubated for 15 min at room temperature. […] Reactions were initiated by the addition of 10 µL of DTNB and 10 µL of either AChI or BCh. […] All of the reactions were performed in triplicate and recorded in 96-well microplate format using a microplate spectrophotometer (Molecular Devices, Sunnyvale, CA, USA). Percent inhibition was calculated as (1-S/E) × 100, where E and S were the respective enzyme activities without and with the tested sample, respectively.
# [3] = molecular target: T1, human recombinant BACE1; experiment: In vitro BACE1 FRET enzyme assay; format: biochemical; settings: for IC50: log dose inhibition curve; for BACE1 inhibitory activity (in words): at concentrations up to 200 µM
# Procedure: Assays were performed according to the supplied manual (Pan Vera Co.) with selected modifications, as described previously. […] Fluorescence was measured with a microplate spectrophotometer (Molecular Devices). The percent of inhibition (%) was obtained by the following equation: % Inhibition = [1 − (S60 − S0)/(C60 − C0)] × 100, where C60 was the fluorescence of the control (enzyme, buffer, and substrate) after incubation for 60 min, C0 was the initial fluorescence of the control, S60 was the fluorescence of the tested samples (enzyme, sample solution, and substrate) after incubation for 60 min, and S0 was the initial fluorescence of the tested samples. To account for the quenching effect of samples, the sample solution was added to a separate reaction mixture C, and any reduction in fluorescence by the sample was investigated.
# [4] = molecular target: T3, horse serum butyrylcholinesterase (Equus caballus, UniProt P81908); experiment: In vitro BChE inhibition assay (Ellman spectrophotometric method); format: biochemical
# T3 construct: horse-serum BChE (EC 3.1.1.8); purchased Sigma Co. (St. Louis, MO, USA); host or cells: horse serum
# T3 sequence (P81908 whole entry): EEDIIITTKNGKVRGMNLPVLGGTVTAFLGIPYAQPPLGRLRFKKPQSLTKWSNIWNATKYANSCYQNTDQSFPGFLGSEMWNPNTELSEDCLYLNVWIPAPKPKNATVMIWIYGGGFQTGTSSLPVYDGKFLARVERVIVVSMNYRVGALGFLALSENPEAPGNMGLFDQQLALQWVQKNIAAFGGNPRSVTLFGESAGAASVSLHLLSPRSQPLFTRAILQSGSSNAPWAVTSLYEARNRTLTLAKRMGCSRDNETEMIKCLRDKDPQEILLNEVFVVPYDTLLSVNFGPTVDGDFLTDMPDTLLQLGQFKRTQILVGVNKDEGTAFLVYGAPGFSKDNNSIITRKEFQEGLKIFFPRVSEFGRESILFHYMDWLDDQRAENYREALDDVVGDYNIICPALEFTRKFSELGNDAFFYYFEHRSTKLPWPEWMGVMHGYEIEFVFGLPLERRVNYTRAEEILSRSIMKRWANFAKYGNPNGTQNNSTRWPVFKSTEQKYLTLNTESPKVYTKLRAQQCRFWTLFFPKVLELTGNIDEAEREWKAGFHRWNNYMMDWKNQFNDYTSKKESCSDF
# Procedure: as §1
# [5] = molecular target: T1, human recombinant BACE1; experiment: Enzyme kinetic analysis with BACE1 (Dixon and Lineweaver-Burk plots); format: biochemical
# Procedure: Assays were performed according to the supplied manual (Pan Vera Co.) with selected modifications, as described previously. Briefly, mixtures of 10 µL of assay buffer (50 mM sodium acetate, pH 4.5), 10 µL of BACE1 (1.0 U/mL), 10 µL of the substrate (750 nM Rh-[…]-Quencher in 50 mM, ammonium bicarbonate), and 10 µL of compounds (final conc., 100 µM) dissolved in 10% DMSO were incubated for 60 min at 25 °C in the dark. The proteolysis of two fluorophores (Rh-[…]-Quencher) by BACE1 was monitored by the formation of fluorescent donor Rh-EVNL (530–545 nm, excitation; 570–590 nm, emission), the abundance of which was determined by measuring increase in fluorescence excited at 545 nm and recorded at 585 nm. Fluorescence was measured with a microplate spectrophotometer (Molecular Devices). The percent of inhibition (%) was obtained by the following equation: % Inhibition = [1 − (S60 − S0)/(C60 − C0)] × 100, where C60 was the fluorescence of the control (enzyme, buffer, and substrate) after incubation for 60 min, C0 was the initial fluorescence of the control, S60 was the fluorescence of the tested samples (enzyme, sample solution, and substrate) after incubation for 60 min, and S0 was the initial fluorescence of the tested samples. […]
# [6] = molecular target: T2, Electric eel acetylcholinesterase; experiment: Enzyme kinetic analysis with AChE (Dixon and Lineweaver-Burk plots); format: biochemical
# Procedure: Inhibition constants (Ki) were determined by the interpretation of Dixon plots, where the x-axis intercept was taken as Ki.
# [7] = design: method as in PMID 10319159; settings: cited from earlier work
# [8] = mean ± S.E.M of triplicate experiments, log dose inhibition curve, read-out: AChE IC50
# [9] = mean ± S.E.M of triplicate experiments, read-out: BACE1 IC50
# [10] = mean ± S.E.M of triplicate experiments, log dose inhibition curve, read-out: BChE IC50
compound,measurement,setting,value
"COc1cc(OC)c2c(=O)c(OC)c(-c3ccc(OC)c(OC)c3)oc2c1 [PMF, 3,5,7,3′,4′-pentamethoxyflavone, reference compound]",IC50,"[1]; read-out: BACE1 IC50, literature value for PMF",59.8 µM
same,BACE1 inhibitor type,[1]; reported for PMF,noncompetitive inhibitor
"COc1cc(O)c2c(O)c3c(=O)cc(C)oc3cc2c1 [Compound 1, rubrofusarin]",IC50,[2],124 ± 1.39 µM
same,IC50,"[3]; BACE1 IC50, mean ± S.E.M of triplicate experiments",90 ± 2.38 µM
same,IC50,[4],> 200 µM
"Cc1cc(=O)c2c(O)c3c(OC4OC(CO)C(O)C(O)C4O)cc(O)cc3cc2o1 [Compound 4, nor-rubrofusarin 6-O-β-D-glucoside]",IC50,[2]; [8],86 ± 2.01 µM
same,BACE1 inhibitory activity (in words),[1],most potent BACE1 inhibitory activity
same,IC50,[3]; [9],86 µM and 14.4 µM
same,Ki,"[5]; Dixon plot, read-out: Ki Value (BACE1 inhibition constant)",10 µM
same,Inhibition Type (BACE1),[5]; Lineweaver-Burk plot,mixed type of inhibition; also recorded: Mixed type ^e
same,IC50,[4]; [10],> 200 µM
"COc1cc(OC2OC(CO)C(O)C(O)C2O)c2c(O)c3c(=O)cc(C)oc3cc2c1 [Compound 2, rubrofusarin 6-O-β-D-glucopyranoside]",IC50,[2]; [8],148 ± 2.09 µM
same,IC50,[3]; [9],148 µM and 191 µM
same,IC50,[4]; [10],> 200 µM
"COc1cc(O[C@@H]2O[C@H](CO[C@@H]3O[C@H](CO)[C@@H](O)[C@H](O)[C@H]3O)[C@@H](O)[C@H](O)[C@H]2O)c2c(O)c3c(=O)cc(C)oc3cc2c1 [Compound 3, rubrofusarin 6-O-β-D-gentiobioside]","AChE inhibition relative to 5, 6 and 4",[2],five times
same,AChE inhibition relative to 1,[2]; fold more effective than 1 (no sugar moiety),eight times
same,AChE inhibition relative to 2,[2]; fold more effective than 2 (one sugar moiety),nine times
same,IC50,[2]; [8],15.9 ± 0.32 µM
same,Ki,"[6]; Dixon plot, read-out: Ki Value (AChE inhibition constant)",12.8 µM
same,Inhibition Type (AChE),[6]; Lineweaver-Burk plot,mixed type inhibition; also recorded: Mixed type ^c
same,IC50,[3]; [9],85.7 ± 3.98 µM
same,IC50,[4]; [10],141.2 ± 1.23 µM
same,Radical scavenging activity relative to 4,[7],twice
toralactone gentiobioside,BACE1 inhibitory activity (in words),[1],moderate activity
"COc1cc(O[C@@H]2O[C@H](CO[C@@H]3O[C@H](CO)[C@@H](O)[C@H](O[C@@H]4O[C@H](CO)[C@@H](O)[C@H](O)[C@H]4O)[C@H]3O)[C@@H](O)[C@H](O)[C@H]2O)c2c(O)c3c(=O)cc(C)oc3cc2c1 [Compound 6, rubrofusarin 6-O-β-D-triglucoside]",IC50,[2]; [8],82.3 ± 1.63 µM
same,BACE1 inhibitory activity (in words),[3],no significant inhibitory activity
same,IC50,[3]; [9],> 200 µM
same,IC50,[4]; [10],> 200 µM
"COc1ccc2cc3[n+](cc2c1OC)CCc1cc2c(cc1-3)OCO2 [Berberine, berberine, reference compound]",IC50,[2],0.68 ± 0.01 µM
"COc1cc(O[C@@H]2O[C@H](CO[C@@H]3O[C@H](CO)[C@@H](O)[C@H](O)[C@H]3O)[C@@H](O)[C@H](O)[C@H]2O)c2c(c1)cc(O)c1c(=O)cc(C)oc12 [Compound 5, isorubrofusarin 10-O-β-D-gentiobioside]",IC50,[2]; [8],83.5 ± 1.56 µM
same,BACE1 inhibitory activity (in words),[3],no significant inhibitory activity
same,IC50,[3]; [9],> 200 µM
same,IC50,[4]; [10],> 200 µM

# — publication PMC6017707, “Structure Related Inhibition of Enzyme Systems in Cholinesterases and BACE1 In Vitro by Naturally Occurring Naphthopyrone and Its Glycosides Isolated from Cassia obtusifolia” (Molecules : A Journal of Synthetic Chemistry and Natural …, 2017)
